ChEMBL document CHEMBL1201862, “PubChem BioAssay data set” (2004)
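How tested: cells in 96-well plates exposed to compound for 48 hours at five concentrations. GI50 marks 50% less growth.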 The source made the active and inactive calls. Rule as the data show it: active = GI50 up to about 1.1 µM and inactive = higher.

Key:
Assay in all cases: NCI tumour cell line growth inhibition, 48 h
[1] = system: EKVX
[2] = system: HL-60
[3] = system: HOP-62
[4] = system: HT-29
[5] = system: IGROV-1
[6] = system: M14
[7] = system: MOLT-4
[8] = system: OVCAR-4
[9] = system: OVCAR-5
[10] = system: PC-3
[11] = system: SF-539
[12] = system: SK-MEL-28
[13] = system: SK-MEL-2
[14] = system: SN12C
[15] = system: SNB-19
[16] = system: SR
[17] = system: T47D
[18] = system: U-251
[19] = system: UACC-257
[20] = system: UO-31

SMILES | GI50 [1] | GI50 [2] | GI50 [3] | GI50 [4] | GI50 [5] | GI50 [6] | GI50 [7] | GI50 [8] | GI50 [9] | GI50 [10] | GI50 [11] | GI50 [12] | GI50 [13] | GI50 [14] | GI50 [15] | GI50 [16] | GI50 [17] | GI50 [18] | GI50 [19] | GI50 [20]
Cc1cnc2nc(-c3cccc4ccccc34)cc(O)c2c1 | 0.00282 µM (active) | 0.000232 µM (active) | 0.0248 µM (active) | 0.000412 µM (active) | 0.00552 µM (active) | 0.000711 µM (active) | 0.000955 µM (active) | 16.4 µM (inactive) | 0.00351 µM (active) | 0.00121 µM (active) | 0.000618 µM (active) | 0.000619 µM (active) | 0.000335 µM (active) | 0.00869 µM (active) | 0.00332 µM (active) | 0.000352 µM (active) | 26 µM (inactive) | 0.000532 µM (active) | 0.000254 µM (active) | 0.00242 µM (active)
CC(C)N(C(=O)c1ccc(NCc2cc(O)ccc2O)cc1)C(C)C | 14.7 µM (inactive) | 2.26 µM (inactive) | 25.5 µM (inactive) | 18 µM (inactive) | 17.7 µM (inactive) | 17.2 µM (inactive) | 15.2 µM (inactive) | 15.1 µM (inactive) | 21.5 µM (inactive) | 18.8 µM (inactive) | 12.9 µM (inactive) | 16.9 µM (inactive) | 22.3 µM (inactive) | 18.2 µM (inactive) | 19.2 µM (inactive) | > 100 µM (inactive) | 11.8 µM (inactive) | 15.8 µM (inactive) | 17.4 µM (inactive) | 9.44 µM (inactive)
O=C1C=C(NCC(c2ccccc2)c2ccccc2)C(=O)c2ncccc21 | 2.07 µM (inactive) | 1.15 µM (inactive) | 1.57 µM (inactive) | 7.45 µM (inactive) | 1.38 µM (inactive) | 1.61 µM (inactive) | 2.31 µM (inactive) | 1.84 µM (inactive) | 5.14 µM (inactive) | 1.75 µM (inactive) | 3.09 µM (inactive) | 2.85 µM (inactive) | 2.28 µM (inactive) | 2.1 µM (inactive) | 2.58 µM (inactive) | 1.63 µM (inactive) | 3.08 µM (inactive) | 2.05 µM (inactive) | 0.877 µM (active) | 1.11 µM (active)
C(=C\c1cccs1)/c1cccc(/C=C/c2cccs2)n1 | > 100 µM (inactive) | > 100 µM (inactive) | 83 µM (inactive) | > 100 µM (inactive) | 50 µM (inactive) | > 100 µM (inactive) | > 100 µM (inactive) | 12.4 µM (inactive) | > 100 µM (inactive) | > 100 µM (inactive) | > 100 µM (inactive) | > 100 µM (inactive) | > 100 µM (inactive) | 61 µM (inactive) | 78.9 µM (inactive) | 32.4 µM (inactive) | 6.14 µM (inactive) | 54.7 µM (inactive) | > 100 µM (inactive) | 30.3 µM (inactive)
O=C(/C=C/c1ccc(O)c(O)c1)c1ccc(O)cc1O [BUTEIN] | 26.9 µM (inactive) | 3.29 µM (inactive) | 17.4 µM (inactive) | 17.5 µM (inactive) | 15.2 µM (inactive) | 16.3 µM (inactive) | 7.64 µM (inactive) | 19.1 µM (inactive) | 17.4 µM (inactive) | 19.6 µM (inactive) | 11.2 µM (inactive) | 14.5 µM (inactive) | 14.9 µM (inactive) | 14.5 µM (inactive) | 18.5 µM (inactive) | 7.1 µM (inactive) | 14.4 µM (inactive) | 9.25 µM (inactive) | 15.6 µM (inactive) | 14 µM (inactive)
Nc1cccc(/C=C/C(=O)N2CCN(CCOC(c3ccccc3)c3ccccc3)CC2)c1 | 18.7 µM (inactive) | 11.2 µM (inactive) | 17.7 µM (inactive) | 8.2 µM (inactive) | 18.2 µM (inactive) | 13.2 µM (inactive) | 5.42 µM (inactive) | 12.4 µM (inactive) | 19.1 µM (inactive) | 14.7 µM (inactive) | 17.3 µM (inactive) | 15 µM (inactive) | 16.2 µM (inactive) | 17.5 µM (inactive) | 17 µM (inactive) | 14.4 µM (inactive) | 13.1 µM (inactive) | 15.8 µM (inactive) | 17.7 µM (inactive) | 16.9 µM (inactive)
O=C(O)c1cc(-c2ccc3c(O)ccc(O)c3c2)ccc1O | 18.2 µM (inactive) | > 100 µM (inactive) | 34.1 µM (inactive) | 18.8 µM (inactive) | 16.7 µM (inactive) | 21.9 µM (inactive) | 3.01 µM (inactive) | 16.5 µM (inactive) | 18.3 µM (inactive) | 12.9 µM (inactive) | 16 µM (inactive) | 18.1 µM (inactive) | 17.2 µM (inactive) | 15.7 µM (inactive) | 40.9 µM (inactive) | 3.51 µM (inactive) | 6.4 µM (inactive) | 21.4 µM (inactive) | 17.4 µM (inactive) | 17.4 µM (inactive)
C=CC(OC(C)=O)c1ccc(OC(=O)C(C)C)c(OC)c1 (stereo not given) | 7.5 µM (inactive) | 2.79 µM (inactive) | 10.2 µM (inactive) | 2.31 µM (inactive) | 12.9 µM (inactive) | 5.6 µM (inactive) | 9.02 µM (inactive) | 4.9 µM (inactive) | 2.51 µM (inactive) | 5.19 µM (inactive) | 9.4 µM (inactive) | 11.1 µM (inactive) | 4.48 µM (inactive) | 3.63 µM (inactive) | 11.8 µM (inactive) | 2.49 µM (inactive) | 2.86 µM (inactive) | 2.39 µM (inactive) | 9.86 µM (inactive) | 3.44 µM (inactive)
CC(C)NC(=O)OCc1c(COC(=O)NC(C)C)c(-c2ccc(Cl)c(Cl)c2)n2c1CCC2 | 57.1 µM (inactive) | 26.6 µM (inactive) | 38.5 µM (inactive) | 40.9 µM (inactive) | 50 µM (inactive) | 35.9 µM (inactive) | 13.7 µM (inactive) | > 66.5 µM (inactive) | 44.9 µM (inactive) | > 80.7 µM (inactive) | 43.5 µM (inactive) | 65 µM (inactive) | 44.2 µM (inactive) | 49.4 µM (inactive) | 56.5 µM (inactive) | 6.37 µM (inactive) | 50.5 µM (inactive) | 51.3 µM (inactive) | 49.7 µM (inactive) | 45 µM (inactive)
Cc1cc(NS(=O)(=O)c2ccc(NC(=O)c3cccc4c(NNc5ccc(S(=O)(=O)N=C(N)N)cc5)c5ccccc5nc34)cc2)no1 | 19.7 µM (inactive) | 26.7 µM (inactive) | > 100 µM (inactive) | 30.5 µM (inactive) | 45.6 µM (inactive) | > 100 µM (inactive) | 28 µM (inactive) | 58.7 µM (inactive) | 83.6 µM (inactive) | 46.1 µM (inactive) | 40.1 µM (inactive) | 33.9 µM (inactive) | 19.5 µM (inactive) | 70.3 µM (inactive) | 45.6 µM (inactive) | 35.8 µM (inactive) | 34.6 µM (inactive) | 22.6 µM (inactive) | > 100 µM (inactive) | 54.2 µM (inactive)
COC1C(CO)OC(n2c3c(Cl)cccc3c3c4c(c5c6cccc(Cl)c6[nH]c5c32)C(=O)NC4=O)C(O)C1O (stereo not given) | 0.463 µM (active) | 0.22 µM (active) | 0.177 µM (active) | 0.244 µM (active) | 0.299 µM (active) | 0.333 µM (active) | 0.0498 µM (active) | 0.337 µM (active) | 0.796 µM (active) | 0.227 µM (active) | 0.195 µM (active) | 0.337 µM (active) | 0.386 µM (active) | 0.104 µM (active) | 0.213 µM (active) | 0.0282 µM (active) | 0.154 µM (active) | 0.173 µM (active) | 0.219 µM (active) | 0.296 µM (active)
CCN(CC)c1ccc2cc(-c3csc(C)n3)c(=O)oc2c1 | > 100 µM (inactive) | 95.3 µM (inactive) | 30.6 µM (inactive) | 5.75 µM (inactive) | 45.3 µM (inactive) | > 100 µM (inactive) | > 100 µM (inactive) | 34.6 µM (inactive) | > 100 µM (inactive) | 43.5 µM (inactive) | 77.3 µM (inactive) | > 100 µM (inactive) | > 100 µM (inactive) | > 100 µM (inactive) | 59.7 µM (inactive) | 62.2 µM (inactive) | 2.14 µM (inactive) | 57.7 µM (inactive) | 77.8 µM (inactive) | > 100 µM (inactive)
CC1(C)CCC2=C(O1)/C(=N\Nc1ccc(F)cc1)c1ccccc1C2=O | 22.4 µM (inactive) | 16 µM (inactive) | 21.7 µM (inactive) | 18.9 µM (inactive) | 31.9 µM (inactive) | 20.1 µM (inactive) | 35.3 µM (inactive) | 34.4 µM (inactive) | 35.6 µM (inactive) | 34.8 µM (inactive) | 46.9 µM (inactive) | 26.2 µM (inactive) | 32.3 µM (inactive) | 32.3 µM (inactive) | 35.6 µM (inactive) | 21.9 µM (inactive) | 17.3 µM (inactive) | 31.5 µM (inactive) | 17.3 µM (inactive) | 38.2 µM (inactive)
CC(=O)Nc1ccc2c(c1)C(=O)c1cccc(F)c1-2 | > 100 µM (inactive) | > 100 µM (inactive) | 51.3 µM (inactive) | 35.2 µM (inactive) | 20.1 µM (inactive) | 50.9 µM (inactive) | 25.3 µM (inactive) | 50.4 µM (inactive) | 80.9 µM (inactive) | 45.7 µM (inactive) | 0.0234 µM (active) | > 100 µM (inactive) | > 100 µM (inactive) | 42.2 µM (inactive) | > 100 µM (inactive) | 19.9 µM (inactive) | 24.9 µM (inactive) | 38.6 µM (inactive) | 97.5 µM (inactive) | 21.2 µM (inactive)
